Where two headings read alike, the source gives them in different places. Marks after values point to notes of the source that are not given here. Where a SMILES comes first, the peptide text is derived from it. Bridges are numbered along the chain shown (N, C = ends). [ ]: non-standard residue; d: D form. The star is where a group is joined. X1 = CC[C@H](C)CCCCC(=O)*; Dab = NCC[C@H](N)C(=O)O
Legend:
E. coli = details: ref EUCAST; cited from earlier work
Experimental: Colistin is used in chickens for the treatment and metaphylaxis (following confirmation of disease within the flock) of susceptible (ECOFF = 2 mg/L) gastro-intestinal non-invasive E. coli infections. The dose recommended for administration via drinking water is 75,000 IU of colistin (as sulphate) per kg body weight per day for 3–5 consecutive days in Europe. As colistin is not absorbed from the gastrointestinal tract, its effect is exerted locally within the intestinal lumen and the wall of the intestine. As such, there is an opportunity to develop a PK model to predict the gut concentration t ...

[1] = test system: mcr-negative and mcr-positive E. coli isolates; details: cited from earlier work
Text: (§1) Supplement 41598_2023_39727_MOESM1_ESM.docx, table 2: Supplementary Table 2: Typical value (tv) and median parameter estimates and 95% confidence intervals of the semi-mechanistic model. | column: Typical value (tv) estimate; Median (Bootstrap) estimate

E. coli 120h_B3_5; mcr-1 = details: cited from earlier work
Text: as §1

[2] = test system: E. coli N100; mcr-negative; details: cited from earlier work
Text: as §1

[3] = Colistin concentration in luminal intestinal (jejunum and ileum) content, UHPLC-MS/MS; type: in vivo, Ross 308 broiler chickens; details: Ross 308 broiler; for tissue level at time at 54 h: po, jejunum and ileum content, 4 birds per timepoint, read-out: Geometric mean colistin concentration in luminal intestinal content
Experimental: Pharmacokinetic data from in vivo clinical and supra-clinical doses via drinking water and oral gavage were collected as follows. Birds were provided a 14-h photoperiod aligned with onset of dosing (0 h) at 07:00. Birds were housed together upon arrival and separated at 13-days into the following dosing groups 75,000 IU/kg oral gavage (n = 17), 150,000 IU/kg oral gavage (n = 17), 75,000 IU/kg/day drinking water (n = 38), 100,000 IU/kg/day drinking water (n = 38), and 150,000 IU/kg/day drinking water (n = 38), the remaining birds constituted an untreated control group (n = 27) housed in another room. Colistin was administered as a single oral gavage via manual syringe directly into the crop, with the volume calculated based on bird weight immediately prior to dosing. For colistin administration via drinking water, dose was calculated based on average bird weight and water consumption measured the preceding day. It was refreshed every 24 h over the 3-day dosing. The “real” dose received every 24 h was back calculated based on measured water consumption for each dosing period.
For administration via drinking water, 4 birds were sampled at each of the following timepoints pre-dose (0 h), during-dose (12, 36 and 54 h) and post-dose (72, 75, 76, 78, 84 and 96 h). Following oral gavage, 2 birds were sampled at each of the following timepoints 0 h (pre-dose), 1 h, 3 h, 6 h, 12 h, and 24 h (post-dose). Birds were sacrificed through cervical dislocation. The whole small intestine was excised from the duodenum to the large intestine, including the caeca, using individually wrapped and sterilised sets of dissection apparatus were used to avoid cross-contamination between birds. The jejunum and ileum were resected (between proximal ligature after duodenum, and distal ligature before the large intestine) and luminal intestinal content (LIC) was collected as an homogenous sample extracted from the small intestine via peristaltic massage in a proximal-to-distal direction as previously described, with the jejunum/ileum representing the principle compartment for potentially pathogenic E. coli (as compared to the large intestine). All samples were stored at − 80 °C prior to further analysis for no-more than 3 months. Following a previously validated method, colistin was extracted from the matrix using solid-phase extraction with a methanol:water (1:2; v/v) solution. Polymyxin B1 was used as an internal standard. Colistin A and colistin B, (main components of colistin), were separated, detected and measured using ultra-high-performance liquid chromatography coupled with tandem mass spectrometry (UHPLC-MS/MS). Total colistin was calculated as the ratio of the sum of peak areas of colistin A and B over the polymyxin B1 peak area.

[4] = ref Bergen et al.[46], cited from earlier work
Experimental: For the bacteriological response, the cumulative area under the curve of the total bacterial count over 24 h (AUCbact24h) was used. Data were then log10 transformed for regression. As LOQ was set at 100 CFU/mL, it was considered that re-growth would not occur if the total bacterial population decreased to this value. PK/PD indices are conventionally determined using protein unbound (free; f) concentration. Bergen et al.[46] indicated practical equivalence of total and unbound colistin in CAMHB (unbound fractions of 0.96 and 0.95 at 10 and 30 mg/L respectively). Furthermore, as colistin binding ...

E. coli population = details: 75,000 IU/kg BW/day for 3-days; cited from earlier work
Text: (§2) In this situation treatment is used to lower the number of resident E. coli in the gastrointestinal tract and control gut overgrowth, in a similar fashion to selective decontamination[37],[38]. As the outcome is not to achieve complete eradication (gut sterilisation), a lower effect than predicted by the PK/PD index critical value may be enough to reduce the bacterial burden within the gastrointestinal tract.

[5] = 75,000 IU/kg BW/day for 3-days; cited from earlier work
Text: as §2

[6] = Colistin activity loss after centrifugation of medium (colispot microbiological assay); type: in vitro ADME; details: colispot method
[7] = 1-compartment population intestinal PK model of colistin; type: in vivo, broiler chickens; details: for Amount of colistin base transit through the small intestine / Amount of colistin sulphate transit through the small intestine: Eq. (1)
Experimental: Colistin (converted in mg/kg BW) was deposited in a dosing compartment (crop), either as a single bolus input representing an oral-gavage administration or as a daily zero-order input lasting 24 h representing a continuous dose via drinking water. The colistin content pooled jejunum and ileum content (expressed as mg colistin/kg intestinal content) was assumed to be well mixed and was fitted with a one-compartment model. The model was parametrised with 3 parameters: “clearance” that is here an intestinal flow rate (expressed in kg intestinal content/kg BW h^−1), “volume of distribution”, expressed in kg intestinal content/kg BW) and absorption rate constant for extravascular administration (Ka expressed in h^−1).
Between subject variability (BSV) was applied to the clearance (Cl) described using an exponential model, as in the following general equation: Pi=tvP∗exp(ηPi) where tvP is the typical value of the parameter within the population and the random parameter ηPi (eta) represents the deviation from the typical value for the ith individual. Etas are assumed normally distributed with a mean of 0 and a variance of ω^2.
For model evaluation, a significant decrease (> 6.635 corresponding to p < 0.01 for one degree of freedom) in the Bayesian information criterion (BIC) as well as observation of observed vs. population, individual predicted concentrations plots, and visual predictive checks (VPC) were utilized. All concentrations lower than the LOQ of the bioanalytical method (1.1 mg/kg) were considered as censored and managed with the M3 approach and using the Laplace engine by Phoenix™ v8.3.0.5005 (Certara, St. Louis, Missouri). Residual variability was described with a multiplicative error model, providing optimal fit compared to additive or additive/multiplicative models. Residual variability was low due to the single random effect on the clearance considering only a single-point for each bird (due to the nature of the destructive sampling) and the near normal distribution of the Etas. The final population model was evaluated using a Visual Predictive Check (VPC; n = 300) that compares observed with predicted quantiles (10th, 50th and 90th percentiles).

[8] = targeted dose 100,000 IU/kg BW/day
[9] = targeted dose 150,000 IU/kg BW/day
[10] = typical value, 1-compartment intestinal PK model

CC[C@H](C)CCCCC(=O)N[C@@H](CCN)C(=O)N[C@H](C(=O)N[C@@H](CCN)C(=O)N[C@H]1CCNC(=O)[C@H]([C@@H](C)O)NC(=O)[C@H](CCN)NC(=O)[C@H](CCN)NC(=O)[C@H](CC(C)C)NC(=O)[C@@H](CC(C)C)NC(=O)[C@H](CCN)NC1=O)[C@@H](C)O [colistin, colistin sulphate] (X1-[Dab]T[Dab][Dab][Dab][dL]L[Dab][Dab]T; lactam 4-C)
ECOFF (E. coli): 2 mg/L | Emax (S2), typical value (tv) estimate ([1]; both mcr-negative and mcr-positive isolates, maximal increase in kill effect): 2.69 h⁻¹ | gamma_S1 (Hill coefficient), typical value (tv) estimate ([1]; sub-population S1): 4.09 scalar | gamma_S2 (Hill coefficient), median (bootstrap) estimate ([1]; sub-population S2): 3.80 scalar | gamma_S2 (Hill coefficient), typical value (tv) estimate ([1]; sub-population S2): 3.22 scalar | F2 (potentiation factor for Kdrug on S1), typical value (tv) estimate (E. coli 120h_B3_5; mcr-1; for mcr-positive isolates, calculated from covariate parameter): 3.76* scalar | Emax (S1), typical value (tv) estimate (E. coli 120h_B3_5; mcr-1; mcr-positive isolates, Emax (S2) x F2): 10.13** h^-1 | EC50_S1, typical value (tv) estimate (E. coli 120h_B3_5; mcr-1; sub-population S1): 2.760 µg/mL | EC50_S2, typical value (tv) estimate (E. coli 120h_B3_5; mcr-1; sub-population S2): 2.174 µg/mL | F2 (potentiation factor for Kdrug on S1), typical value (tv) estimate ([2]; for mcr-negative isolates): 12.66 scalar | Emax (S1), typical value (tv) estimate ([2]; negative mcr isolates, Emax (S2) x F2): 34.12** h^-1 | EC50_S1, typical value (tv) estimate ([2]; sub-population S1, reproduced PD parameters): 0.083 µg/mL | EC50_S2, typical value (tv) estimate ([2]; sub-population S2): 0.115 µg/mL | tissue level at time at 1 h ([3]; 75000 IU/kg, oral gavage 75,000 IU/kg, after 1 h, 2 birds per timepoint): 21200 ng/g | tissue level at time at 3 h ([3]; 150000 IU/kg, oral gavage 150,000 IU/kg, after 3 h, 2 birds per timepoint): 45600 ng/g | tissue level at time at 54 h ([3]; 75000 IU/kg/day, 75,000 IU/kg via drinking water): 4890 ng/g | tissue level at time at 54 h ([3]; 100000 IU/kg/day, 100,000 IU/kg via drinking water): 6660 ng/g | tissue level at time at 54 h ([3]; 150000 IU/kg/day, 150,000 IU/kg via drinking water): 8600 ng/g | Unbound fraction of colistin ([4]; in CAMHB at 10 mg/L): 0.96 | Unbound fraction of colistin ([4]; in CAMHB at 30 mg/L): 0.95 | Reduction in the E. coli population (E. coli population): ~1000 fold | Maximum intestinal concentrations [5]: greater than 5 mg/kg | Colistin activity loss following centrifugation ([6]; from CAMHB, E. coli ATCC 25922 bacterial lawn (microbiological assay, not LCMS)): 2% | Colistin activity loss following centrifugation ([6]; from IGM (intestinal growth medium), binding to particulate matter, E. coli ATCC 25922 bacterial lawn): 27% | Overall MTT in digestive tract (mean transit time crop to jejunum) ([7]; secondary parameter): 4.5 h | ka HL (entry rate half-life) ([7]; secondary parameter): 3.14 h | Amount of colistin base transit through the small intestine ([7]; targeted dose 75,000 IU/kg BW/day): 70,534 IU/kg BW/day | Amount of colistin base transit through the small intestine [7, 8]: 91,627 IU/kg BW/day | Amount of colistin sulphate transit through the small intestine [7, 8]: 3.05 mg/kg BW/day | Amount of colistin base transit through the small intestine [7, 9]: 139,935 IU/kg BW/day | Amount of colistin sulphate transit through the small intestine [7, 9]: 4.66 mg/kg BW/day | Cl (intestinal clearance), estimate (between subject variability %) [7, 10]: 29.1 (40.5%) g intestinal content/kg BW/h | V (intestinal volume of distribution) [7, 10]: 5.14 g intestinal content/kg BW | ka (entry rate constant from crop to jejunum) [7, 10]: 0.221 h⁻¹
